Experimental data taken from PMC10053621 (Pharmaceutics, 2023).
Where two headings read alike, the source gives them in different places.

What was measured:
[1] = Critical aggregation concentration (CAC), Nile red fluorescence; assay type: physicochemical; details: ex 550 nm, intensity at 650 nm, FKFL-G2 0.001 to 0.9 mg/mL
Description: In order to confirm whether FKFL-G2 forms an aggregate by itself, the CAC was measured by fluorescence spectroscopy using Nile red. A 1 mL solution of FKFL-G2 with a concentration range of 0.001 to 0.9 mg/mL was combined with 5 µL of Nile red (1 mM in MeOH) and mixed by vortexing. Subsequently, fluorescence was measured at wavelengths of 550 nm for excitation and 560–760 nm for emission using a fluorometer (LS45, Fluorescence Spectrometer, PerkinElmer), and the fluorescence intensity at 650 nm was analyzed to measure the values of the nanoparticles.

[2] = Zeta potential and mean diameter (Zetasizer Nano ZS, DLS); assay type: physicochemical; details: for Diameter / Polydispersity (PDI): DLS at RT, repeated three times; for Zeta Potential: room temperature, triplicate
Description: The surface charge and the mean diameter of the FKFL-G2 were measured in triplicate and evaluated at various concentrations at room temperature using a Zetasizer Nano ZS (Malvern Panalytical, Malvern, UK).

[3] = system: NIH3T3 cells
Description: NIH3T3 cells were used to evaluate the cytotoxicity of the FKFL-G2 dendrimer. A total of 1.8 × 10^4 cells/well were seeded in a 96-well plate and incubated in 90 µL of Dulbecco’s modified Eagle’s medium, containing 10% (v/v) fetal bovine serum and 1% (w/v) penicillin/streptomycin, for 16 h at 37 °C in a humidified atmosphere containing 5% CO2. […] Each sample in the experimental group was treated with 10 µL of the FKFL-G2 dendrimer at the following concentrations: 12.5, 25, 50, 100, and 200 µg/mL. After 24 h of incubation, 10 µL of EZ-Cytox reagent (WST-8) was added to each well (except for that used as the negative control), which were incubated for a subsequent 2 h. Lastly, the absorbance of the wells measured a data wavelength of 450 nm via a colorimetric enzyme-linked immunosorbent assay (VERSAmax, Molecular Devices, Sunnyvale, CA, USA).

[4] = system: Staphylococcus aureus (S. aureus); assay: Bacterial growth assay (turbidity, OD600); assay type: cell-based; details: 100 µg/mL, 1-8 h
Description: (§1) The antibacterial effect of FKFL-G2 was evaluated using Escherichia coli (E. coli) DH5α, which is kanamycin-resistant, and Staphylococcus aureus (S. aureus). Bacterial growth was estimated based on turbidity measurements, a commonly used method of evaluating the density of bacteria grown on a solution medium. In this process, E. coli and S. aureus bacteria were thawed, cultured overnight, and subcultured. […] The optical density (OD) of each sample was measured at a wavelength of 600 nm using an ultraviolet–visible spectrophotometer (OPTIZEN QX, Optizen, Daejeon, Republic of Korea).

[5] = system: E. coli; assay: Colony-forming unit assay; assay type: cell-based, Escherichia coli; details: 100 µg/mL, 24 h growth on agar plate, n = 3
Description: (§2) A colony-forming unit assay was performed to determine the effect of FKFL-G2 on bacterial colony formation. This process followed the same steps as the turbidity test in Section 2.5. The OD of the cells was measured after 24 h of growth. The cell solution was diluted by a factor of 10^7; after which, 100 µL of the diluted solution was sprayed onto an agar plate and incubated in a shaking incubator for 24 h at 37 °C. The number of colonies produced was then observed.

[6] = system: S. aureus; assay: Colony-forming unit assay; assay type: cell-based, Staphylococcus aureus; details: 100 µg/mL, 24 h growth on agar plate, n = 3
Description: as §2

[7] = system: E. coli; assay: Membrane permeabilization assay (NPN); assay type: cell-based, Escherichia coli; details: 100 µL of 1 mg/mL in 1 mL, 30 min, HEPES pH 7.8, ex 350 / em 429 nm, n = 3
Description: (§3) To evaluate the ability of FKFL-G2 to disrupt bacterial cell membranes, the membrane permeabilization assay was performed using N-phenyl-1-naphthylamine (NPN). E. coli and S. aureus bacteria were thawed and cultured overnight at 37 °C while being shaken at 180 rpm. After the absorbance of the bacterial solutions reached an OD600 of 1.0, the bacterial cells were harvested via centrifugation at 3500 rpm for 10 min. The bacterial pellet was washed twice with 4-(2-hydroxyethyl)-1-piperazineethanesulfonic acid (HEPES) buffer (pH 7.8). The bacterial pellets were then subjected to another round of centrifugation at 3500 rpm for 10 min and resuspended in 1 mL of HEPES (pH 7.8) to make bacterial solutions. […] Triton X-100, a well-known surfactant with a high capacity to destroy cell membranes, was used as a control. The fluorescence of each solution was measured using a fluorometer (LS45 Fluorescence Spectrometer, PerkinElmer, Waltham, MA, USA) at an excitation wavelength of 350 nm and emission wavelength of 429 nm.

[8] = system: S. aureus; assay: Membrane permeabilization assay (NPN); assay type: cell-based, Staphylococcus aureus; details: 100 µL of 1 mg/mL in 1 mL, 30 min, HEPES pH 7.8, ex 350 / em 429 nm, n = 3
Description: as §3

[9] = system: E. coli; assay: Biofilm formation assay (crystal violet); assay type: cell-based, Escherichia coli; details: 8 h at 37 °C, absorbance at 550 nm, n = 4
Description: E. coli cells were thawed, cultured overnight, and then subcultured. […] To prevent subsequent background staining, the culture medium was removed and washed three times with distilled water. Then, 125 μL of crystal violet solution (0.1%, w/v) was added to the cells, which were incubated for another 10 min. Thereafter, the solution was removed, and the cells were washed with water and dried overnight. Lastly, 125 µL of a 30% acetic acid solution was added to the cells, which were incubated for 10 min to dissolve the film. The absorbance of the cells was then measured using a microplate reader (VERSAmax, Molecular Devices, Sunnyvale, CA, USA) at a wavelength of 550 nm.

[10] = system: E. coli; assay: Scanning electron microscopy of treated bacteria; assay type: cell-based, Escherichia coli; details: 8 h at 37 °C
Description: (§4) Bacterial morphology with untreated or Amp, Kan, G2, and FKFL-G2-treated was observed using field emission scanning electron microscopy (FE-SEM; S-4800, Hitachi, Tokyo, Japan). E. coli and S. aureus bacteria were cultured and incubated with experimental and control samples for 8 h at 37 °C while being shaken at 225 rpm. Thereafter, 50 µL of the bacterial solution of each culture was placed on a silicon wafer and dried at room temperature. The bacteria-containing wafers were placed on a 24-well plate and treated with 4% paraformaldehyde for 30 min. The surfaces were then washed using various concentrations of ethanol solution 0%, 25%, 50%, 75%, and 99.9%. The washed wafers were coated with platinum for 90 s; after which, and the appearance of bacteria was observed using FE-SEM (S-4800, Hitachi, Tokyo, Japan). The shapes of treated bacterial cells were compared with those of nontreated corresponding bacterial cells.

[11] = system: S. aureus; assay: Scanning electron microscopy of treated bacteria; assay type: cell-based, Staphylococcus aureus; details: 8 h at 37 °C
Description: as §4

[12] = system: Escherichia coli (E. coli) DH5α, kanamycin-resistant; assay: Bacterial growth assay (turbidity, OD600); assay type: cell-based; details: 100 µg/mL, 1-8 h
Description: as §1

For “phenylalanine (F)-lysine (K)-phenylalanine (F)-Leucine (L)-polyamidoamine generation 2 (PAMAM G2) [FKFL-G2]”, the “Critical aggregation concentration (CAC)” value [1] was 31.03 µM, the Diameter ([2]; concentration 42.3 µM) was 158.33 ± 12.59 and the “Polydispersity (PDI)” value ([2]; concentration 42.3 µM) was 0.628 ± 0.14. For the same compound, the “Zeta Potential” value ([2]; concentration 42.3 µM) was 29.63 ± 6.51, the Diameter ([2]; concentration 84.6 µM) was 109.83 ± 17.54 and the “Polydispersity (PDI)” value ([2]; concentration 84.6 µM) was 0.459 ± 0.18. The “Zeta Potential” value ([2]; concentration 84.6 µM) was 35.5 ± 6.0, the Diameter ([2]; concentration 169.2 µM) was 98.45 ± 6.95 and the “Polydispersity (PDI)” value ([2]; concentration 169.2 µM) was 0.475 ± 0.03. For the same compound, the “Zeta Potential” value ([2]; concentration 169.2 µM) was 38.23 ± 5.74, the cell viability ([3]; 8.46 µM) was “about 83%” and the cell viability ([3]; 16.9 µM) was roughly 48%. The “bacterial growth, OD600 over time (in words)” value [4] was “decreased over time”, the “colony formation (in words)” value [5] was “strong antibacterial effect” and the “colony formation (in words)” value [6] was “strong antibacterial effect”. For the same compound, the “membrane permeabilization, NPN fluorescence (in words)” value (from here on “membrane permeabilization”) [7] was “higher fluorescence than PAMAM G2”, the “membrane permeabilization” value [8] was “higher fluorescence than PAMAM G2” and the “biofilm formation inhibition rate” value [9] was “approximately 98%”. The “cell density in FE-SEM images (in words)” value [10] was “lowest” and the “cell density in FE-SEM images (in words)” value [11] was “lowest”.
For CC1(C)S[C@@H]2[C@H](NC(=O)[C@H](N)c3ccccc3)C(=O)N2[C@H]1C(=O)O [Ampicillin], the “bacterial growth, OD600 over time (in words)” value [4] was “remained stable” and the “biofilm formation inhibition rate” value [9] was “approximately 98%”.
For NC[C@H]1O[C@H](O[C@H]2[C@H](O)[C@@H](O[C@H]3O[C@H](CO)[C@@H](O)[C@H](N)[C@H]3O)[C@H](N)C[C@@H]2N)[C@H](O)[C@@H](O)[C@@H]1O [kanamycin, Kanamycin], the “bacterial growth, OD600 over time (in words)” value [12] was “grew well”, the “bacterial growth, OD600 over time (in words)” value [4] was “remained stable” and the “membrane permeabilization” value [7] was “did not show any membrane perturbation effect”. For the same compound, the “membrane permeabilization” value [8] was “did not show any membrane perturbation effect” and the “biofilm formation inhibition rate” value [9] was 75%.
